# In patent publication US7402575B2, “Methods of treating inflammation” (priority 2003, dated 2008):
# Entries after “also recorded” stand apart in the source; their conditions may differ.
# Columns and labels:
# E. coli sepsis in dogs [1] = test: Pretreatment Study: TAC given before E. coli sepsis, hemodynamics; assay type: in vivo, dog; conditions: for Arterial pH / HR / Hct / Pwp / SVR: mean±SE, n=6
# Experimental: (§1) In all of the studies outlined, the animals were randomized into treatment and nontreatment placebo groups (see below). The E. coli model used in these studies was identical to that previously described (6). Sepsis was induced by the intravenous infusion of 10^10 colony forming units of live E. coli (designation 011:B4). The bacteria were suspended in normal saline solution and were given over 0.5 hour. A constant infusion of approximately 5×10^9 colony forming units/hour of E. coli was then maintained for the remainder of the experiment.
# (§2) The animals (16-24 kg) were initially anesthetized with thiopental sodium (20 mg/kg, intravenously) and constantly infused with sufentanil citrate (1 ug/min) and midazolam (5 ug/kg/min) (33). Drug rates were adjusted as required to abolish the palpebral reflex. The animals were placed in the supine position; the trachea was intubated with an endotracheal tube; and the lungs were mechanically ventilated at a tidal volume of 20 ml/kg. The ventilator rate was initially set to maintain blood pH at approximately 7.35 and was increased as necessary to reverse the metabolic acidosis that developed over the course of the study. Approximately 100% oxygen was inspired, so that hypoxemia would not affect the results of the study.
# (§3) Under sterile conditions, the right jugular vein was percutaneously cannulated with an introducer (Arrow International, Reading, Pa.). A thermister tipped catheter was advanced from the jugular vein into the pulmonary artery to measure mean pulmonary arterial pressure (Ppa), mean pulmonary capillary wedge pressure (Pwp), mean right atrial pressure (Pra), thermodilution cardiac output (CO, Columbus Instruments, OH), and to obtain mixed venous oxygen blood samples. Another introducer was placed into the left jugular vein for administration of intravenous saline solution and the treatment or placebo drug (see below). A polyethylene catheter was also percutaneously placed into the femoral artery to measure mean blood pressure (MAP), and to obtain samples of blood for blood gas analysis, blood hematocrit (Hct), lactate concentrations, and blood cultures in some cases. Lactate was measured by an automated lactate dehydrogenase based assay (34) and was performed only in ETS and LTS because of equipment difficulties in the Pretreatment Study.
# (§4) All catheters were connected to transducers (Cobe Laboratories), were referenced relative to the left atrium and were connected to a chart recorder (Astro-Med, W Warwick, R.I.). Heart rate (HR) was measured from the recorder tracing. Stroke-volume (SV) was calculated as CO/HR. Systemic vascular resistance (SVR) was calculated from [(MAP-Pra)/CO]×80. At each measurement interval (see below), a full set of measurements included MAP, CO, Ppa, Pra, Pwp, Hct, HR, SV, and arterial and mixed venous blood samples.
# (§5) In the analysis, stroke work (SW) was the primary index of cardiac performance and the primary hemodynamic endpoint chosen in the in vivo studies (35,18) (see Discussion). At constant preload, SW reflects both the decreases in afterload and the changes in contractile function that accompany sepsis. SW was determined at approximately the same Pwp at each measurement interval. The baseline Pwp usually averaged ≈8-10 mmHg, and normal saline solution was given as necessary to maintain Pwp constant over the experimental period. SW was calculated from SV (MAP-Pwp).
# Pretreatment Study. In the Pretreatment Study, TAC was given before the bacteria were infused. Based on previous studies, it takes approximately 3 to 4 hours of constant bacteremia in order for myocardial depression to develop in this model (6,18). A three to five hour course of bacteremia was therefore considered necessary to determine if TAC could block the decline in SW observed at this interval. […]
# E. coli sepsis in dogs [2] = test: Early Treatment Study: TAC given 1.5 h after sepsis induced, hemodynamics; assay type: in vivo, dog; conditions: for Arterial pH / HR / Hct / Lactate / Pwp / SVR: mean±SE, n=5
# Experimental: as §1, §2, §3, §4, §5
# Early Treatment Study. The purpose of this study was to assess the effect of TAC when treatment was administered during sepsis, but before myocardial depression developed. Treatment was administered at 1.5 hours after bacteremia was begun (6). Based on the lack of response of some animals in the LTS, the initial dose of TAC was increased to 400 mg, and followed by 50 mg/h mixed in 50 cc D5W over the remainder of the study. The placebo group received an identical amount of D5W over the course of the study.
# Datura stramonium lectin = test: Inhibition by TAC of lectin-induced depression of isometric tension in right ventricular trabecular preparation; assay type: cell-based, dog; conditions: TAC 10^−4M pre-treatment
# Experimental: After baseline tension was determined, either the lectin or placebo was placed into respective organ baths. The concentrations of the lectins used were 10^−8M, 10^−7M, and 10^−6M based on the concentration of lysozyme found in sepsis that averaged approximately 10^−8M. In the case of Datura stramonium lectin, moreover, the effect of TAC on inhibiting the myocardial depression caused by this lectin was also examined. […] Measurements were obtained at 5 minute intervals. The changes in isometric tension measured from baseline were compared between the lectin treated and placebo preparations.
# Lectins are nonenzymatic proteins that bind to carbohydrates and can be classified by their specificity for a particular sugar or polysaccharide (42). […] After baseline tension was determined, either the lectin or placebo (i.e. KH) was placed into respective organ baths in which the concentrations of the lectins used were similar to those described for Lzm-S. In the case of DSL, moreover, it was assessed whether TAC could also prevent the depression caused by this lectin.
# [3] = immediately after TAC infusion, before sepsis
smiles,measurement,setting,value
"CC(=O)N[C@H]1[C@H](O[C@H]2[C@H](O)[C@@H](NC(C)=O)C(O)O[C@@H]2CO)O[C@H](CO)[C@@H](O[C@@H]2O[C@H](CO)[C@@H](O)[C@H](O)[C@H]2NC(C)=O)[C@@H]1O (some centres unmarked) [TAC, N,N′,N″ triacetylglucosamine]","CO after pretreatment, before sepsis",E. coli sepsis in dogs [1],no significant effect on CO
same,CO at the 3 h period vs baseline,E. coli sepsis in dogs [1],CO increased further at the 3 h period
same,"MAP after treatment, before sepsis",E. coli sepsis in dogs [1],no effect on baseline MAP
same,MAP at the 5 hour period vs nontreated group,E. coli sepsis in dogs [1],significantly prevented the decrease in MAP; also recorded: significant increases
same,"SV, change between baseline and 5 h vs nontreated group",E. coli sepsis in dogs [1],significantly different between the treated and nontreated groups; also recorded: significant increases
same,"SW, change between baseline and 5 h vs nontreated group",E. coli sepsis in dogs [1],significantly different between the treated and nontreated groups; also recorded: significant increases
same,Arterial pH,E. coli sepsis in dogs [1]; 3 h postsepsis,7.25 ± .001
same,HR,E. coli sepsis in dogs [1]; 3 h postsepsis,105 ± 5 beats/min
same,Hct,E. coli sepsis in dogs [1]; 3 h postsepsis,28 ± 2%
same,Pwp,E. coli sepsis in dogs [1]; 3 h postsepsis,9 ± .9 mmHg
same,SVR,E. coli sepsis in dogs [1]; 3 h postsepsis,1272 ± 221 dynes s cm^−5
same,Arterial pH,E. coli sepsis in dogs [1]; 5 h postsepsis,7.22 ± 0.1
same,HR,E. coli sepsis in dogs [1]; 5 h postsepsis,90 ± 5 beats/min
same,Hct,E. coli sepsis in dogs [1]; 5 h postsepsis,26 ± 3%
same,Pwp,E. coli sepsis in dogs [1]; 5 h postsepsis,9.6 ± .9 mmHg
same,SVR,E. coli sepsis in dogs [1]; 5 h postsepsis,1504 ± 249 dynes s cm^−5
same,Arterial pH,E. coli sepsis in dogs [1]; baseline before TAC,7.35 ± .01
same,HR,E. coli sepsis in dogs [1]; baseline before TAC,74 ± 11 beats/min
same,Hct,E. coli sepsis in dogs [1]; baseline before TAC,33 ± 1%
same,Pwp,E. coli sepsis in dogs [1]; baseline before TAC,9.3 ± .8 mmHg
same,SVR,E. coli sepsis in dogs [1]; baseline before TAC,2472 ± 320 dynes s cm^−5
same,Arterial pH,E. coli sepsis in dogs [1]; [3],7.28 ± .01
same,HR,E. coli sepsis in dogs [1]; [3],78 ± 5 beats/min
same,Pwp,E. coli sepsis in dogs [1]; [3],10.4 ± 1 mmHg
same,SVR,E. coli sepsis in dogs [1]; [3],1872 ± 320 dynes s cm^−5
same,CO over the course of sepsis,E. coli sepsis in dogs [2]; 6 h,increased over the course of sepsis as compared with the nontreated group; also recorded: significant increases
same,SV over the course of sepsis,E. coli sepsis in dogs [2]; 6 h,showed a similar finding
same,Arterial pH,E. coli sepsis in dogs [2]; 6 h after sepsis initiated,7.24 ± .03
same,HR,E. coli sepsis in dogs [2]; 6 h after sepsis initiated,94 ± 8 beats/min
same,Hct,E. coli sepsis in dogs [2]; 6 h after sepsis initiated,30 ± 4%
same,Lactate,E. coli sepsis in dogs [2]; 6 h after sepsis initiated,1 ± .1 mM
same,Pwp,E. coli sepsis in dogs [2]; 6 h after sepsis initiated,10.9 ± 1 mmHg
same,SVR,E. coli sepsis in dogs [2]; 6 h after sepsis initiated,1792 ± 233 dynes s cm^−5
same,Arterial pH,E. coli sepsis in dogs [2]; baseline,7.23 ± .03
same,HR,E. coli sepsis in dogs [2]; baseline,68 ± 9 beats/min
same,Hct,E. coli sepsis in dogs [2]; baseline,31 ± 2%
same,Lactate,E. coli sepsis in dogs [2]; baseline,1 ± .1 mM
same,Pwp,E. coli sepsis in dogs [2]; baseline,10 ± .5 mmHg
same,SVR,E. coli sepsis in dogs [2]; baseline,2160 ± 581 dynes s cm^−5
same,MAP over the 6 hrs of sepsis,E. coli sepsis in dogs [2]; treatment group,increased in 4 of the 5 dogs
same,Effect of TAC on myocardial depression caused by Datura stramonium lectin,Datura stramonium lectin,markedly attenuated; also recorded: could be reversed by pre-treatment with TAC; also recorded: blocked the isometric depression
